Measured values published in the NIST ThermoML archive (doi:10.1021/je300405a).
± gives the expanded uncertainty stated by the source.

Settings: Liquid; for speed of sound: Pulse-echo method; for mass density: Vibrating tube method

Question: Which results are given for CCCCCCCCCC(=O)OCC [ethyl decanoate]?
Answer: speed of sound (283.15 K, 101.3 kPa): 1352.7 ± 5.6 m/s; speed of sound (283.15 K, 10000 kPa): 1398.5 ± 5.8 m/s; speed of sound (283.15 K, 20000 kPa): 1442.3 ± 6 m/s; speed of sound (283.15 K, 30000 kPa): 1483.7 ± 6.1 m/s; speed of sound (283.15 K, 40000 kPa): 1522.5 ± 6.3 m/s; speed of sound (283.15 K, 50000 kPa): 1558.3 ± 6.4 m/s; speed of sound (283.15 K, 60000 kPa): 1593.9 ± 6.6 m/s; speed of sound (283.15 K, 70000 kPa): 1627 ± 6.7 m/s; speed of sound (283.15 K, 80000 kPa): 1658.8 ± 6.9 m/s; speed of sound (283.15 K, 90000 kPa): 1689.9 ± 7 m/s; speed of sound (283.15 K, 100000 kPa): 1720.7 ± 10 m/s; speed of sound (283.15 K, 110000 kPa): 1753.7 ± 11 m/s; speed of sound (283.15 K, 120000 kPa): 1781.4 ± 11 m/s; speed of sound (283.15 K, 130000 kPa): 1808.5 ± 11 m/s; speed of sound (283.15 K, 140000 kPa): 1834.6 ± 11 m/s; speed of sound (283.15 K, 150000 kPa): 1860.3 ± 11 m/s; speed of sound (283.15 K, 170000 kPa): 1908.7 ± 12 m/s; speed of sound (283.15 K, 190000 kPa): 1951.8 ± 12 m/s; speed of sound (283.15 K, 210000 kPa): 1998 ± 12 m/s; mass density (293.15 K, 101.3 kPa): 863.82 ± 1 kg/m3; mass density (293.15 K, 10000 kPa): 870.79 ± 1 kg/m3; mass density (293.15 K, 20000 kPa): 877.08 ± 1.1 kg/m3; mass density (293.15 K, 30000 kPa): 882.99 ± 1.1 kg/m3; mass density (293.15 K, 40000 kPa): 888.58 ± 1.1 kg/m3; mass density (293.15 K, 50000 kPa): 893.79 ± 1.1 kg/m3; mass density (293.15 K, 60000 kPa): 898.83 ± 1.1 kg/m3; mass density (293.15 K, 70000 kPa): 903.51 ± 1.1 kg/m3; mass density (293.15 K, 80000 kPa): 907.69 ± 1.1 kg/m3; mass density (293.15 K, 90000 kPa): 912.24 ± 1.1 kg/m3; mass density (293.15 K, 100000 kPa): 916.37 ± 1.1 kg/m3; speed of sound (303.15 K, 101.3 kPa): 1275 ± 5.3 m/s; mass density (303.15 K, 101.3 kPa): 855.53 ± 1 kg/m3; speed of sound (303.15 K, 10000 kPa): 1325.7 ± 5.5 m/s; mass density (303.15 K, 10000 kPa): 863.17 ± 1 kg/m3; speed of sound (303.15 K, 20000 kPa): 1373.2 ± 5.7 m/s; mass density (303.15 K, 20000 kPa): 869.73 ± 1.1 kg/m3; speed of sound (303.15 K, 30000 kPa): 1416.8 ± 5.9 m/s; mass density (303.15 K, 30000 kPa): 875.81 ± 1.1 kg/m3; speed of sound (303.15 K, 40000 kPa): 1458.3 ± 6.1 m/s; mass density (303.15 K, 40000 kPa): 881.53 ± 1.1 kg/m3; speed of sound (303.15 K, 50000 kPa): 1498 ± 6.2 m/s; mass density (303.15 K, 50000 kPa): 887 ± 1.1 kg/m3; speed of sound (303.15 K, 60000 kPa): 1535.5 ± 6.4 m/s; mass density (303.15 K, 60000 kPa): 892.12 ± 1.1 kg/m3; speed of sound (303.15 K, 70000 kPa): 1569.9 ± 6.5 m/s; mass density (303.15 K, 70000 kPa): 897.09 ± 1.1 kg/m3; speed of sound (303.15 K, 80000 kPa): 1603.2 ± 6.7 m/s; mass density (303.15 K, 80000 kPa): 901.73 ± 1.1 kg/m3; speed of sound (303.15 K, 90000 kPa): 1635.3 ± 6.8 m/s; mass density (303.15 K, 90000 kPa): 906.27 ± 1.1 kg/m3; speed of sound (303.15 K, 100000 kPa): 1666.2 ± 10 m/s; mass density (303.15 K, 100000 kPa): 910.56 ± 1.1 kg/m3; speed of sound (303.15 K, 110000 kPa): 1696.2 ± 10 m/s; speed of sound (303.15 K, 120000 kPa): 1724.8 ± 10 m/s; speed of sound (303.15 K, 130000 kPa): 1752.9 ± 11 m/s; speed of sound (303.15 K, 140000 kPa): 1779.2 ± 11 m/s; speed of sound (303.15 K, 150000 kPa): 1805.4 ± 11 m/s; speed of sound (303.15 K, 170000 kPa): 1854.6 ± 11 m/s; speed of sound (303.15 K, 190000 kPa): 1902.4 ± 12 m/s; speed of sound (303.15 K, 210000 kPa): 1947.7 ± 12 m/s; mass density (313.15 K, 101.3 kPa): 847.99 ± 1 kg/m3; mass density (313.15 K, 10000 kPa): 855.19 ± 1.1 kg/m3; mass density (313.15 K, 20000 kPa): 862 ± 1.1 kg/m3; mass density (313.15 K, 30000 kPa): 868.5 ± 1.1 kg/m3; mass density (313.15 K, 40000 kPa): 874.4 ± 1.1 kg/m3; mass density (313.15 K, 50000 kPa): 880 ± 1.1 kg/m3; mass density (313.15 K, 60000 kPa): 885.4 ± 1.1 kg/m3; mass density (313.15 K, 70000 kPa): 890.5 ± 1.1 kg/m3; mass density (313.15 K, 80000 kPa): 895.4 ± 1.1 kg/m3; mass density (313.15 K, 90000 kPa): 900 ± 1.1 kg/m3; mass density (313.15 K, 100000 kPa): 904.4 ± 1.1 kg/m3; speed of sound (323.15 K, 101.3 kPa): 1203.1 ± 5 m/s; mass density (323.15 K, 101.3 kPa): 839.75 ± 1 kg/m3; speed of sound (323.15 K, 10000 kPa): 1258.2 ± 5.3 m/s; mass density (323.15 K, 10000 kPa): 847.49 ± 1.1 kg/m3; speed of sound (323.15 K, 20000 kPa): 1309.5 ± 5.5 m/s; mass density (323.15 K, 20000 kPa): 854.78 ± 1.1 kg/m3; speed of sound (323.15 K, 30000 kPa): 1355.9 ± 5.6 m/s; mass density (323.15 K, 30000 kPa): 861.46 ± 1.1 kg/m3; speed of sound (323.15 K, 40000 kPa): 1399.1 ± 5.8 m/s; mass density (323.15 K, 40000 kPa): 867.52 ± 1.1 kg/m3; speed of sound (323.15 K, 50000 kPa): 1439.4 ± 6 m/s; mass density (323.15 K, 50000 kPa): 873.23 ± 1.1 kg/m3; speed of sound (323.15 K, 60000 kPa): 1478.4 ± 6.1 m/s; mass density (323.15 K, 60000 kPa): 879.07 ± 1.1 kg/m3; speed of sound (323.15 K, 70000 kPa): 1515.1 ± 6.3 m/s; mass density (323.15 K, 70000 kPa): 884.28 ± 1.1 kg/m3; speed of sound (323.15 K, 80000 kPa): 1550.3 ± 6.4 m/s; mass density (323.15 K, 80000 kPa): 889.28 ± 1.1 kg/m3; speed of sound (323.15 K, 90000 kPa): 1583.7 ± 6.6 m/s; mass density (323.15 K, 90000 kPa): 894.05 ± 1.1 kg/m3; speed of sound (323.15 K, 100000 kPa): 1615.7 ± 9.9 m/s; mass density (323.15 K, 100000 kPa): 898.41 ± 1.2 kg/m3; speed of sound (323.15 K, 110000 kPa): 1645.8 ± 10 m/s; speed of sound (323.15 K, 120000 kPa): 1676.7 ± 10 m/s; speed of sound (323.15 K, 130000 kPa): 1705.7 ± 10 m/s; speed of sound (323.15 K, 140000 kPa): 1733.7 ± 11 m/s; speed of sound (323.15 K, 150000 kPa): 1760.3 ± 11 m/s; speed of sound (323.15 K, 170000 kPa): 1811.6 ± 11 m/s; speed of sound (323.15 K, 190000 kPa): 1861.2 ± 11 m/s; speed of sound (323.15 K, 210000 kPa): 1909.8 ± 12 m/s; mass density (333.15 K, 101.3 kPa): 831.19 ± 1 kg/m3; mass density (333.15 K, 10000 kPa): 839.38 ± 1.1 kg/m3; mass density (333.15 K, 20000 kPa): 846.93 ± 1.1 kg/m3; mass density (333.15 K, 30000 kPa): 853.95 ± 1.1 kg/m3; mass density (333.15 K, 40000 kPa): 860.39 ± 1.1 kg/m3; mass density (333.15 K, 50000 kPa): 866.43 ± 1.1 kg/m3; mass density (333.15 K, 60000 kPa): 872.17 ± 1.1 kg/m3; mass density (333.15 K, 70000 kPa): 877.53 ± 1.1 kg/m3; mass density (333.15 K, 80000 kPa): 882.56 ± 1.1 kg/m3; mass density (333.15 K, 90000 kPa): 887.46 ± 1.2 kg/m3; mass density (333.15 K, 100000 kPa): 892.18 ± 1.2 kg/m3; speed of sound (343.15 K, 101.3 kPa): 1133.3 ± 4.8 m/s; mass density (343.15 K, 101.3 kPa): 822.9 ± 1 kg/m3; speed of sound (343.15 K, 10000 kPa): 1192.8 ± 5 m/s; mass density (343.15 K, 10000 kPa): 831.45 ± 1.1 kg/m3; speed of sound (343.15 K, 20000 kPa): 1247 ± 5.2 m/s; mass density (343.15 K, 20000 kPa): 839.59 ± 1.1 kg/m3; speed of sound (343.15 K, 30000 kPa): 1297.2 ± 5.4 m/s; mass density (343.15 K, 30000 kPa): 846.94 ± 1.1 kg/m3; speed of sound (343.15 K, 40000 kPa): 1343 ± 5.6 m/s; mass density (343.15 K, 40000 kPa): 853.75 ± 1.1 kg/m3; speed of sound (343.15 K, 50000 kPa): 1385.7 ± 5.8 m/s; mass density (343.15 K, 50000 kPa): 860.03 ± 1.1 kg/m3; speed of sound (343.15 K, 60000 kPa): 1425.7 ± 5.9 m/s; mass density (343.15 K, 60000 kPa): 865.88 ± 1.1 kg/m3; speed of sound (343.15 K, 70000 kPa): 1463.9 ± 6.1 m/s
